# Earlier results in patent publication US8383645B2 (Teva Pharmaceutical Industries, Ltd., priority 2006, dated 2013).
# Test system: acute experimental autoimmune encephalomyelitis (aEAE) model
# Conditions: U.S. Pat. No. 6,077,851
smiles,measurement,value
"CCN(C(=O)c1c(O)c2c(Cl)cccc2n(C)c1=O)c1ccccc1 [Laquinimod, N-ethyl-N-phenyl-1,2-dihydro-4-hydroxy-5-chloro-1-methyl-2-oxoquinoline-3-carboxamide]",effectiveness in the aEAE model,effective
